Values after ≈ are worked out from the molar mass of the structure shown.
Experiments:
[1] = test system: Gaeumannomyces tritici; assay: Antifungal activity against sithiofam-resistant Gaeumannomyces graminis var. tritici isolate JS06 expressing C1 genetic cluster assessed as reduction in fungal colony diameter after 4 days; format: functional, organism-based; details: isolate JS06, 96 h
[2] = test system: Gaeumannomyces tritici; assay: Antifungal activity against sithiofam-resistant Gaeumannomyces graminis var. tritici isolate JS05 expressing C1 genetic cluster assessed as reduction in fungal colony diameter after 4 days; format: functional, organism-based; details: isolate JS05, 96 h
[3] = test system: Gaeumannomyces tritici; assay: Antifungal activity against sithiofam-resistant Gaeumannomyces graminis var. tritici isolate JS12 expressing C1 genetic cluster assessed as reduction in fungal colony diameter after 4 days; format: functional, organism-based; details: isolate JS12, 96 h
[4] = test system: Gaeumannomyces tritici; assay: Antifungal activity against sithiofam-sensitive Gaeumannomyces graminis var. tritici isolate JS10 expressing C2 genetic cluster assessed as reduction in fungal colony diameter after 4 days; format: functional, organism-based; details: isolate JS10, 96 h
[5] = test system: Gaeumannomyces tritici; assay: Antifungal activity against sithiofam-sensitive Gaeumannomyces graminis var. tritici isolate HN19 expressing C2 genetic cluster assessed as reduction in fungal colony diameter after 4 days; format: functional, organism-based; details: isolate HN19, 96 h
[6] = test system: Gaeumannomyces tritici; assay: Antifungal activity against sithiofam-sensitive Gaeumannomyces graminis var. tritici isolate HN18 expressing C2 genetic cluster assessed as reduction in fungal colony diameter after 4 days; format: functional, organism-based; details: isolate HN18, 96 h
[7] = test system: Gaeumannomyces tritici; assay: Antifungal activity against sithiofam-sensitive Gaeumannomyces graminis var. tritici isolate HN29 expressing C2 genetic cluster assessed as reduction in fungal colony diameter after 4 days; format: functional, organism-based; details: isolate HN29, 96 h
[8] = test system: Gaeumannomyces tritici; assay: Antifungal activity against sithiofam-sensitive Gaeumannomyces graminis var. tritici isolate HN25 expressing C2 genetic cluster assessed as reduction in fungal colony diameter after 4 days; format: functional, organism-based; details: isolate HN25, 96 h
[9] = test system: Gaeumannomyces tritici; assay: Antifungal activity against sithiofam-sensitive Gaeumannomyces graminis var. tritici isolate HN24 expressing C2 genetic cluster assessed as reduction in fungal colony diameter after 4 days; format: functional, organism-based; details: isolate HN24, 96 h
[10] = test system: Gaeumannomyces tritici; assay: Antifungal activity against sithiofam-sensitive Gaeumannomyces graminis var. tritici isolate HN23 expressing C2 genetic cluster assessed as reduction in fungal colony diameter after 4 days; format: functional, organism-based; details: isolate HN23, 96 h
[11] = test system: Gaeumannomyces tritici; assay: Antifungal activity against sithiofam-sensitive Gaeumannomyces graminis var. tritici isolate HN22 expressing C2 genetic cluster assessed as reduction in fungal colony diameter after 4 days; format: functional, organism-based; details: isolate HN22, 96 h
[12] = test system: Gaeumannomyces tritici; assay: Antifungal activity against sithiofam-sensitive Gaeumannomyces graminis var. tritici isolate HN14 expressing C2 genetic cluster assessed as reduction in fungal colony diameter after 4 days; format: functional, organism-based; details: isolate HN14, 96 h
[13] = test system: Gaeumannomyces tritici; assay: Antifungal activity against sithiofam-resistant Gaeumannomyces graminis var. tritici isolate HN07 expressing C1 genetic cluster assessed as reduction in fungal colony diameter after 4 days; format: functional, organism-based; details: isolate HN07, 96 h
[14] = test system: Gaeumannomyces tritici; assay: Antifungal activity against sithiofam-resistant Gaeumannomyces graminis var. tritici isolate HN06 expressing C1 genetic cluster assessed as reduction in fungal colony diameter after 4 days; format: functional, organism-based; details: isolate HN06, 96 h
[15] = test system: Gaeumannomyces tritici; assay: Antifungal activity against sithiofam-resistant Gaeumannomyces graminis var. tritici isolate HN02 expressing C1 genetic cluster assessed as reduction in fungal colony diameter after 4 days; format: functional, organism-based; details: isolate HN02, 96 h
[16] = test system: Gaeumannomyces tritici; assay: Antifungal activity against sithiofam-sensitive Gaeumannomyces graminis var. tritici isolate AH08 expressing C2 genetic cluster assessed as reduction in fungal colony diameter after 4 days; format: functional, organism-based; details: isolate AH08, 96 h
[17] = test system: Gaeumannomyces tritici; assay: Antifungal activity against sithiofam-sensitive Gaeumannomyces graminis var. tritici isolate HN17 expressing C2 genetic cluster assessed as reduction in fungal colony diameter after 4 days; format: functional, organism-based; details: isolate HN17, 96 h
[18] = test system: Gaeumannomyces tritici; assay: Antifungal activity against sithiofam-sensitive Gaeumannomyces graminis var. tritici isolate HN15 expressing C2 genetic cluster assessed as reduction in fungal colony diameter after 4 days; format: functional, organism-based; details: isolate HN15, 96 h
[19] = test system: Gaeumannomyces tritici; assay: Antifungal activity against sithiofam-sensitive Gaeumannomyces graminis var. tritici isolate JS01 expressing C1 genetic cluster assessed as reduction in fungal colony diameter after 4 days; format: functional, organism-based; details: isolate JS01, 96 h
[20] = test system: Gaeumannomyces tritici; assay: Antifungal activity against sithiofam-sensitive Gaeumannomyces graminis var. tritici isolate AH07 expressing C2 genetic cluster assessed as reduction in fungal colony diameter after 4 days; format: functional, organism-based; details: isolate AH07, 96 h
[21] = test system: Gaeumannomyces tritici; assay: Antifungal activity against sithiofam-sensitive Gaeumannomyces graminis var. tritici isolate AH03 expressing C2 genetic cluster assessed as reduction in fungal colony diameter after 4 days; format: functional, organism-based; details: isolate AH03, 96 h
[22] = test system: Gaeumannomyces tritici; assay: Antifungal activity against sithiofam-sensitive Gaeumannomyces graminis var. tritici isolate AH01 expressing C2 genetic cluster assessed as reduction in fungal colony diameter after 4 days; format: functional, organism-based; details: isolate AH01, 96 h
[23] = test system: Gaeumannomyces tritici; assay: Antifungal activity against sithiofam-sensitive Gaeumannomyces graminis var. tritici isolate SD05 expressing C2 genetic cluster assessed as reduction in fungal colony diameter after 4 days; format: functional, organism-based; details: isolate SD05, 96 h
[24] = test system: Gaeumannomyces tritici; assay: Antifungal activity against sithiofam-sensitive Gaeumannomyces graminis var. tritici isolate SD04 expressing C2 genetic cluster assessed as reduction in fungal colony diameter after 4 days; format: functional, organism-based; details: isolate SD04, 96 h
[25] = test system: Gaeumannomyces tritici; assay: Antifungal activity against sithiofam-sensitive Gaeumannomyces graminis var. tritici isolate SD03 expressing C2 genetic cluster assessed as reduction in fungal colony diameter after 4 days; format: functional, organism-based; details: isolate SD03, 96 h
[26] = test system: Gaeumannomyces tritici; assay: Antifungal activity against sithiofam-sensitive Gaeumannomyces graminis var. tritici isolate AH12 expressing C2 genetic cluster assessed as reduction in fungal colony diameter after 4 days; format: functional, organism-based; details: isolate AH12, 96 h
[27] = test system: Gaeumannomyces tritici; assay: Antifungal activity against sithiofam-sensitive Gaeumannomyces graminis var. tritici isolate SD01 expressing C2 genetic cluster assessed as reduction in fungal colony diameter after 4 days; format: functional, organism-based; details: isolate SD01, 96 h
[28] = test system: Gaeumannomyces tritici; assay: Antifungal activity against sithiofam-sensitive Gaeumannomyces graminis var. tritici isolate HN32 expressing C2 genetic cluster assessed as reduction in fungal colony diameter after 4 days; format: functional, organism-based; details: isolate HN32, 96 h
[29] = test system: Gaeumannomyces tritici; assay: Antifungal activity against sithiofam-sensitive Gaeumannomyces graminis var. tritici isolate HN31 expressing C3 genetic cluster assessed as reduction in fungal colony diameter after 4 days; format: functional, organism-based; details: isolate HN31, 96 h
[30] = test system: Gaeumannomyces tritici; assay: (§1) Antifungal activity against sithiofam-sensitive Gaeumannomyces graminis var. tritici isolate SD05 expressing C2 genetic cluster assessed as fungal induced root necrosis administered to wheat cultivar Huaimai 30 seeds grown on fungal infested soils at 0.25 g ai/kg measured after 10 days (reference value: 27.71%); format: functional
[31] = test system: Gaeumannomyces tritici; assay: as §1, with “SD04” for “SD05”, “27.34%)” for “27.71%)”; format: functional
[32] = test system: Gaeumannomyces tritici; assay: as §1, with “sithiofam-resistant” for “sithiofam-sensitive”, “AH14” for “SD05”, “C1” for “C2”, “28.16%)” for “27.71%)”; format: functional
[33] = test system: Gaeumannomyces tritici; assay: as §1, with “sithiofam-resistant” for “sithiofam-sensitive”, “AH02” for “SD05”, “C1” for “C2”, “28.16%)” for “27.71%)”; format: functional

## CC1COC(Cn2cncn2)(c2ccc(Oc3ccc(Cl)cc3)cc2Cl)O1 (stereo unspecified) [DIFENOCONAZOLE]
[1]
  EC50: 222 ng/mL (≈ 0.548 µM)
[2]
  EC50: 213 ng/mL (≈ 0.525 µM)
[3]
  EC50: 116 ng/mL (≈ 0.287 µM)
[4]
  EC50: 313 ng/mL (≈ 0.771 µM)
[5]
  EC50: 326 ng/mL (≈ 0.803 µM)
[6]
  EC50: 313 ng/mL (≈ 0.769 µM)
[7]
  EC50: 108 ng/mL (≈ 0.265 µM)
[8]
  EC50: 154 ng/mL (≈ 0.38 µM)
[9]
  EC50: 111 ng/mL (≈ 0.274 µM)
[10]
  EC50: 331 ng/mL (≈ 0.816 µM)
[11]
  EC50: 55.3 ng/mL (≈ 0.136 µM)
[12]
  EC50: 98.8 ng/mL (≈ 0.243 µM)
[13]
  EC50: 481 ng/mL (≈ 1.18 µM)
[14]
  EC50: 479 ng/mL (≈ 1.18 µM)
[15]
  EC50: 236 ng/mL (≈ 0.58 µM)
[16]
  EC50: 19 ng/mL (≈ 0.0468 µM)
[17]
  EC50: 176 ng/mL (≈ 0.432 µM)
[18]
  EC50: 88.4 ng/mL (≈ 0.218 µM)
[19]
  EC50: 142 ng/mL (≈ 0.349 µM)
[20]
  EC50: 539 ng/mL (≈ 1.33 µM)
[21]
  EC50: 401 ng/mL (≈ 0.988 µM)
[22]
  EC50: 170 ng/mL (≈ 0.419 µM)
[23]
  EC50: 694 ng/mL (≈ 1.71 µM)
[24]
  EC50: 92.3 ng/mL (≈ 0.227 µM)
[25]
  EC50: 530 ng/mL (≈ 1.31 µM)
[26]
  EC50: 154 ng/mL (≈ 0.38 µM)
[27]
  EC50: 782 ng/mL (≈ 1.93 µM)
[28]
  EC50: 359 ng/mL (≈ 0.885 µM)
[29]
  EC50: 283 ng/mL (≈ 0.697 µM)

## C=CCNC(=O)c1c([Si](C)(C)C)sc(C)c1C [SILTHIOFAM]
[1]
  EC50: 111000 ng/mL (≈ 417 µM)
[2]
  EC50: 24700 ng/mL (≈ 92.2 µM)
[30]
  Activity: 3.19%
[31]
  Activity: 1.02%
[32]
  Activity: 28.42%
[33]
  Activity: 28%
[3]
  EC50: 48400 ng/mL (≈ 181 µM)
[4]
  EC50: 0.9 ng/mL (≈ 0.00336 µM)
[5]
  EC50: 0.1 ng/mL (≈ 0.000374 µM)
[6]
  EC50: 0.5 ng/mL (≈ 0.00187 µM)
[7]
  EC50: 0.2 ng/mL (≈ 0.000748 µM)
[8]
  EC50: 1.1 ng/mL (≈ 0.00411 µM)
[9]
  EC50: 0.3 ng/mL (≈ 0.00112 µM)
[10]
  EC50: 0.9 ng/mL (≈ 0.00336 µM)
[11]
  EC50: 2.4 ng/mL (≈ 0.00897 µM)
[12]
  EC50: 0.9 ng/mL (≈ 0.00336 µM)
[13]
  EC50: 29800 ng/mL (≈ 112 µM)
[14]
  EC50: 29900 ng/mL (≈ 112 µM)
[15]
  EC50: 88100 ng/mL (≈ 329 µM)
[16]
  EC50: 1.3 ng/mL (≈ 0.00486 µM)
[17]
  EC50: 1 ng/mL (≈ 0.00374 µM)
[18]
  EC50: 1.1 ng/mL (≈ 0.00411 µM)
[19]
  EC50: 0.2 ng/mL (≈ 0.000748 µM)
[20]
  EC50: 0.6 ng/mL (≈ 0.00224 µM)
[21]
  EC50: 0.3 ng/mL (≈ 0.00112 µM)
[22]
  EC50: 1.1 ng/mL (≈ 0.00411 µM)
[23]
  EC50: 0.7 ng/mL (≈ 0.00262 µM)
[24]
  EC50: 0.2 ng/mL (≈ 0.000748 µM)
[25]
  EC50: 0.9 ng/mL (≈ 0.00336 µM)
[26]
  EC50: 0.6 ng/mL (≈ 0.00224 µM)
[27]
  EC50: 0.8 ng/mL (≈ 0.00299 µM)
[28]
  EC50: 0.4 ng/mL (≈ 0.0015 µM)
[29]
  EC50: 0.4 ng/mL (≈ 0.0015 µM)

## CC(C)(C)C(O)(CCc1ccc(Cl)cc1)Cn1cncn1 (stereo unspecified) [TEBUCONAZOLE]
[1]
  EC50: 85 ng/mL (≈ 0.276 µM)
[2]
  EC50: 57.5 ng/mL (≈ 0.187 µM)
[3]
  EC50: 27.4 ng/mL (≈ 0.089 µM)
[4]
  EC50: 103 ng/mL (≈ 0.334 µM)
[5]
  EC50: 47.8 ng/mL (≈ 0.155 µM)
[6]
  EC50: 72.7 ng/mL (≈ 0.236 µM)
[7]
  EC50: 76 ng/mL (≈ 0.247 µM)
[8]
  EC50: 86 ng/mL (≈ 0.279 µM)
[9]
  EC50: 47.2 ng/mL (≈ 0.153 µM)
[10]
  EC50: 78 ng/mL (≈ 0.253 µM)
[11]
  EC50: 39 ng/mL (≈ 0.127 µM)
[12]
  EC50: 47.9 ng/mL (≈ 0.156 µM)
[13]
  EC50: 51.3 ng/mL (≈ 0.167 µM)
[14]
  EC50: 53.3 ng/mL (≈ 0.173 µM)
[15]
  EC50: 36.4 ng/mL (≈ 0.118 µM)
[16]
  EC50: 48.9 ng/mL (≈ 0.159 µM)
[17]
  EC50: 39.8 ng/mL (≈ 0.129 µM)
[18]
  EC50: 51.6 ng/mL (≈ 0.168 µM)
[19]
  EC50: 32.5 ng/mL (≈ 0.106 µM)
[20]
  EC50: 64.7 ng/mL (≈ 0.21 µM)
[21]
  EC50: 62.2 ng/mL (≈ 0.202 µM)
[22]
  EC50: 25.4 ng/mL (≈ 0.0825 µM)
[23]
  EC50: 68.8 ng/mL (≈ 0.224 µM)
[24]
  EC50: 127 ng/mL (≈ 0.412 µM)
[25]
  EC50: 98.3 ng/mL (≈ 0.319 µM)
[26]
  EC50: 41.6 ng/mL (≈ 0.135 µM)
[27]
  EC50: 176 ng/mL (≈ 0.573 µM)
[28]
  EC50: 238 ng/mL (≈ 0.772 µM)
[29]
  EC50: 111 ng/mL (≈ 0.362 µM)
